# In patent US6303785A, “Compounds having activity as inhibitors of cytochrome P450RAI” (Allergan Sales, Inc., priority 2000, dated 2001):
# Assays:
# human skin = conditions: known; cited from earlier work
# psoriasis = conditions: prior art; cited from earlier work
# skin of hairless mice = test: Topical Skin Irritation Test (cutaneous toxicity / Blackjack score); type: in vivo, hairless mouse (Cr1:SKH1-hrBR); conditions: topical once daily days 1-5, mean±SD, range 0-21
# Source text: Mice were housed individually throughout the dosing period.
# Doses are disclosed as nmol/25 g.
# The grading scale used is as follows:
# Values can range from 0-9.
# Values can range from 0-8.
# RARβ [1] = molecular target: T1, RARβ (Homo sapiens, UniProt P10826); test: ligand binding assay, RARβ; conditions: read-out: RAR Kd β
# T1 sequence (P10826 1-455): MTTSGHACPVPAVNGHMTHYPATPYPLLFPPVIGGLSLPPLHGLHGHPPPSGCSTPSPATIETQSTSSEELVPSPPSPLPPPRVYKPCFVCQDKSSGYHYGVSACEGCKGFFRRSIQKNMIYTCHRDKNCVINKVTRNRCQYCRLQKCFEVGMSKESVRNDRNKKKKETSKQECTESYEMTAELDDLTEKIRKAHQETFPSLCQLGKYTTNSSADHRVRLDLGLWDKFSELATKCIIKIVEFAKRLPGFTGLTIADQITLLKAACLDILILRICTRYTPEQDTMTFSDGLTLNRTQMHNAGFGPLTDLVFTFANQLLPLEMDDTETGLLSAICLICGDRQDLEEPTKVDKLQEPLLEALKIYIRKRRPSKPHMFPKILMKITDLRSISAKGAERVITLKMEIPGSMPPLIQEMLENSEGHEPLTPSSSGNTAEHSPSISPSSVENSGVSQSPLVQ
# Source text: (§1) Assays described below measure the ability of a compound to bind to, and/or activate various retinoid receptor subtypes. When in these assays a compound binds to a given receptor subtype and activates the transcription of a reporter gene through that subtype, then the compound is considered an agonist of that receptor subtype. […] In the below described assays the ability of the compounds to bind to RARα, […], RARγ, […] and RXRγ receptors, and the ability or inability of the compounds to activate transcription of a reporter gene through these receptor subtypes can be tested.
# (§2) The results obtained in this assay are expressed in EC50 numbers, as they are also in the chimeric receptor transactivation assay. The results of ligand binding assay are expressed in Kd numbers.
# RARβ [2] = test: chimeric receptor transactivation assay, RARβ; type: cell-based; conditions: read-out: RAR EC50 β
# Source text: as §1, §2
# RARγ = test: chimeric receptor transactivation assay, RARγ; type: cell-based; conditions: read-out: RAR EC50 γ
# Source text: as §1, §2
Compound,Cutaneous Toxicity Score (Blackjack Score) (skin of hairless mice; 100 nmole (per 25 g)),Cutaneous Toxicity Score (Blackjack Score) (skin of hairless mice; 300 nmole (per 25 g)),Cutaneous Toxicity Score (Blackjack Score) (skin of hairless mice; 1000 nmole (per 25 g)),further results
CCOC(=O)/C=C(C)/C=C/C=C(C)/C=C/c1c(C)cc(OC)c(C)c1C [etretinate],,,,skin irritation in humans (in words) (human skin): substantial skin irritation
Clc1cccc(C(c2ccc3[nH]cnc3c2)n2ccnc2)c1 (centres unmarked) [liarozole],,,,retinoid-like effect of treatment (in words) (psoriasis): amelioration of psoriasis
"CC1=C(/C=C/C(C)=C/C=C/C(C)=C/C(=O)O)C(C)(C)CCC1 [ATRA, all-trans-retinoic acid]",,,,skin irritation in humans (in words) (human skin): substantial skin irritation
"CC1(C)CC2(CC2)Oc2c(C3CC3)cc(C#Cc3ccc(CC(=O)O)c(F)c3)cc21 [Compound 50, 4-[(8-Cyclopropyl-3,4-dihydro-4,4-dimethylspiro[2H-1-benzopyran-2,1'-cyclopropane]-6-yl)ethynyl]-2-fluoro-benzeneacetic acid]",1 ± 0,3 ± 2,8 ± 2,
O=C(O)c1ccc(C#Cc2ccc(C3(N(Cc4ccccc4)Cc4ccccc4)CC3)cc2)cc1 [Compound 114],,,,Kd (RARβ [1]): > 10 nM
"CC1(C)CN(C2CC2)Cc2ccc(C#Cc3ccc(CC(=O)O)c(F)c3)cc21 [Compound 22, [4-(2-Cyclopropyl-4,4-dimethyl-1 2,3,4-tetrahydro-isoquinolin-6-yl-ethynyl)-2-fluoro-phenyl]-acetic acid]",0 ± 0,0 ± 0,1 ± 1,
"CC1(C)CC(C)(C)c2cc(C#Cc3ccc(CC(=O)O)c(F)c3)cc(C3CC3)c2O1 [Compound 38, [4(8-Cyclopropyl-2,2,4,4tetramethyl-chroman-6-yl-ethynyl)-2-fluoro-phenyl]acetic acid]",1 ± 1,,10 ± 1,
"CN(C1CC1)C1CCC(C)(C)c2cc(C#Cc3ccc(CC(=O)O)cc3)ccc21 (centres unmarked) [Compound 8, 4-[(5-(Cyclopropyl-methyl-amino)-8,8-dimethyl-5,6,7,8-tetrahydro-naphthalene-2-yl-ethynyl)-phenyl]-acetic acid]",5 ± 2,8 ± 3,12 ± 1,
"CN(C1CC1)C1CCC(C)(C)c2cc(C#Cc3ccc(CC(=O)O)c(F)c3)ccc21 (centres unmarked) [Compound 18, [4-(5-(Cyclopropyl-methyl-amino)-8,8-dimethyl-5,6,7,8-tetrahydro-naphthalene-2-yl-ethynyl)-2-fluoro-phenyl]-acetic acid]",0 ± 0,5 ± 2,10 ± 2,
"CCc1cc(C#Cc2ccc(C(=O)O)cc2)ccc1C1(OCc2ccccc2)CC1 [Compound 93, 4-[4-(1-Benzyloxycyclopropyl)-3-ethyl-phenylethynyl]-benzoic acid]",,,,EC50 (RARβ [2]): 20 nM; EC50 (RARγ): 10 nM
"CC1(C)CCC(n2ccnc2)c2ccc(C#Cc3ccc(CC(=O)O)cc3)cc21 (centres unmarked) [Compound 137, [4-(5-Imidazol-1-yl-8,8-dimethyl-5,6,7,8-tetrahydro-naphthalen-2-yl-ethynyl)-phenyl]-acetic acid]",1 ± 1,1 ± 1,5 ± 2,
"CC1(C)CC2(CC2)Oc2c(C3CC3)cc(C#Cc3ccc(CC(=O)O)cc3)cc21 [Compound 48, Benzeneacetic acid, 4-[(8-cyclopropyl-3,4-dihydro-4,4-dimethylspiro[2H 1-benzopyran-2.1'-cyclopropane]-6-yl)ethanyl]-]",1 ± 1,3 ± 1,7 ± 2,
"CC1(C)CCC(=O)c2ccc(C#Cc3ccc(C(=O)O)c(F)c3)cc21 [Compound 10, 2-Fluoro-4(8,8dimethyl-5-oxo-5,6,7,8-tetrahydro-naththalen-2yl-ethynyl)benzoic acid]",,,,EC50 (RARβ [2]): 0.3 nM; EC50 (RARγ): 6 nM
"CC1(C)CC(C)(C)c2cc(C#Cc3ccc(CC(=O)O)cc3)cc(C3CC3)c2O1 [Compound 36, [4-(8-Cyclopropyl-2,2,4,4-tetramethyl-chroman-6-yl-ethynyl)phenyl]acetic acid]",1 ± 1,,11 ± 0,
"CC1(C)CC2(CC2)Oc2c(C3CC3)cc(C(=O)Oc3ccc(CC(=O)O)cc3)cc21 [Compound 58, Spiro[2H-1-benzopyran-2,1'-cyclopropane]-6-carboxylic acid, 8-cyclopropyl-3,4-dihydro-4,4-dimethyl-, 4-(carboxymethyl)phenyl ester]",0 ± 0,0 ± 0,0 ± 0,
CC1=C(/C=C/C(C)=C/C=C/C(C)=C\C(=O)O)C(C)(C)CCC1 [13-cis RA],,,,skin irritation in humans (in words) (human skin): substantial skin irritation
"CC1(C)CCC(=O)c2ccc(C#Cc3ccc(CC(=O)O)cc3)cc21 [Compound 5, 4-[(8,8-Dimethyl1-5-oxo-5,6,7,8-tetrahydro-naphthalene-2-yl-ethynyl)-phenyl]-acetic acid]",0,,6 ± 3,
"CC1(C)CCC(=O)c2ccc(C#Cc3ccc(CC(=O)O)c(F)c3)cc21 [Compound 15, [2-Fluoro-4-(8,8-dimethyl-5-oxo-5,6,7,8-tetrahydro-naphthalene-2-yl-ethynl)phenyl]-acetic acid]",1 ± 1,,5 ± 2,
